# Source: ChEMBL document CHEMBL1153451, “Novel aminopeptidase N inhibitors derived from antineoplaston AS2-5 (Part I)” (Bioorg Med Chem, 2009)
# Active and inactive are the calls of the source. No cut-off for these calls is given here.
# Legend:
# [1] = target: 72 kDa type IV collagenase (Homo sapiens, UniProt P08253); assay: Inhibition of MMP2 by spectrophotometry
# [2] = target: T1, Aminopeptidase N (Sus scrofa, UniProt P15145); assay: (§1) Inhibition of pig kidney microsome aminopeptidase N by UV-visible spectrophotometer
# T1 sequence (P15145 whole entry): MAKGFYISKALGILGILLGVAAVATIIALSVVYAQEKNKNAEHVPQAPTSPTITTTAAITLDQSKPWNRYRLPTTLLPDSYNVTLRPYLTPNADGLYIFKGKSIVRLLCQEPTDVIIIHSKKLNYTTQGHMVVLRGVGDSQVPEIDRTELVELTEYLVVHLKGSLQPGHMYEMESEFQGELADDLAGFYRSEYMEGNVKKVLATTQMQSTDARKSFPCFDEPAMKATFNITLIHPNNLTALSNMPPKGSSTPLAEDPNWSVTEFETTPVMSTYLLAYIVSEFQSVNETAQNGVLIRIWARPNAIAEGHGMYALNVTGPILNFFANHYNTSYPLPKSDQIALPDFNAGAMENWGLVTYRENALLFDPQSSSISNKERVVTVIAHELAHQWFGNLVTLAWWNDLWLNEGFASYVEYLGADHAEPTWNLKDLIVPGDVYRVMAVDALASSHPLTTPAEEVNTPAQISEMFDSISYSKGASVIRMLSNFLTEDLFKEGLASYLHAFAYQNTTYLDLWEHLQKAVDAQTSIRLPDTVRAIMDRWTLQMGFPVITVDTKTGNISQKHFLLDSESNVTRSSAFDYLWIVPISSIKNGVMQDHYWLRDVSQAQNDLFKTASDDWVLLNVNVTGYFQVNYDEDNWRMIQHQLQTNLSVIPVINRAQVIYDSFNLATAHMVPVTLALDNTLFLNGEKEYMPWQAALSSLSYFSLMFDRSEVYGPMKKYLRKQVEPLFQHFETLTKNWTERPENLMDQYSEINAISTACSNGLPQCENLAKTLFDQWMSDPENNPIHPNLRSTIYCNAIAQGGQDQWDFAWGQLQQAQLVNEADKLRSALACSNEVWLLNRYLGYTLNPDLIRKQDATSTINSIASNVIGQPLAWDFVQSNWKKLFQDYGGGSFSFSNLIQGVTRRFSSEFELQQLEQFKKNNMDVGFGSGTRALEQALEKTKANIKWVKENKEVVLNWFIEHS
# [3] = target: T2, Aminopeptidase N (Sus scrofa) (UniProt P15145); assay: as §1
# T2 sequence (whole entry): T1 sequence (P15145 whole entry)
SMILES,IC50 [1] [µM],IC50 [2] [µM],Activity [1],Activity [3]
COc1cc(C(=O)N[C@H](CCC(=O)O)C(=O)Nc2ccc(N)cc2)cc(OC)c1OC,33.6,23.4,–,–
COc1cc(C(=O)N[C@H](CCC(=O)O)C(=O)NCCCl)cc(OC)c1OC,501,805,–,–
COc1cc(C(=O)N[C@H](CCC(=O)O)C(=O)NNC(=O)c2cccnc2)cc(OC)c1OC,115,72.4,–,–
COc1cc(C(=O)N[C@H](CCC(=O)O)C(=O)NCc2ccc(Br)cc2F)cc(OC)c1OC,76.1,51.2,–,–
COc1cc(C(=O)N[C@H](CCC(=O)O)C(=O)Nc2ccc(Cl)cc2)cc(OC)c1OC,52.3,40,–,–
COc1cc(C(=O)NC2CCC(=O)N(c3ccccc3N)C2=O)cc(OC)c1OC (stereo not drawn),660,104,–,–
COc1cc(C(=O)N[C@H](CCC(=O)O)C(=O)Nc2ccc(F)c(Cl)c2)cc(OC)c1OC,107,78.5,–,–
COc1cc(C(=O)N[C@H](CCC(=O)O)C(=O)Nc2ccc(C(=O)O)cc2)cc(OC)c1OC,71.2,65.8,–,–
COc1cc(C(=O)N[C@H](CCC(=O)O)C(=O)Nc2ccc(F)cc2F)cc(OC)c1OC,109,89.6,–,–
COc1cc(C(=O)N[C@H](CCC(=O)O)C(=O)Nc2ccc(Br)cc2)cc(OC)c1OC,54.4,41.9,–,–
COc1cc(C(=O)N[C@H](CCC(=O)O)C(=O)Nc2nccs2)cc(OC)c1OC,369,108,–,–
COc1cc(C(=O)N[C@H](CCC(=O)O)C(=O)NCc2cccc(I)c2)cc(OC)c1OC,76.8,65.9,–,–
COc1cc(C(=O)N[C@H](CCC(=O)O)C(=O)NCc2cccc(Br)c2)cc(OC)c1OC,287,177,–,–
COc1cc(C(=O)N[C@H](CCC(=O)O)C(=O)NNC(=O)c2nccs2)cc(OC)c1OC,169,87.7,–,–
CC(C)C[C@H](NC(=O)[C@@H](O)[C@H](N)Cc1ccccc1)C(=O)O [UBENIMEX],40.5,–,–,–
COc1cc(C(=O)N[C@H](CCC(=O)O)C(=O)Nc2ccc([N+](=O)[O-])cc2)cc(OC)c1OC,–,–,inactive,inactive
COc1cc(C(=O)N[C@H](CCC(=O)O)C(=O)Nc2ccc(S(N)(=O)=O)cc2)cc(OC)c1OC,628,103,–,–
COc1cc(C(=O)N[C@H](CCC(=O)O)C(=O)Nc2ccc(C(=O)O)c(O)c2)cc(OC)c1OC,86.3,57.8,–,–
COc1cc(C(=O)N[C@H](CCC(=O)O)C(=O)NCc2ccc(Cl)cc2F)cc(OC)c1OC,52.8,45.6,–,–
COc1cc(C(=O)N[C@H](CCC(=O)O)C(=O)Nc2ccc(F)cc2)cc(OC)c1OC,26.1,24.3,–,–
COc1cc(C(=O)N[C@H](CCC(=O)O)C(=O)Nc2ccc(S(=O)(=O)Nc3nccs3)cc2)cc(OC)c1OC,55.3,40.1,–,–
COc1cc(C(=O)N[C@H](CCC(=O)O)C(=O)Nc2cc(Cl)ccc2Cl)cc(OC)c1OC,122,80.4,–,–
